# Test results from patent US20030194738A1, “Antisense oligonucleotide compositions and methods for the modulation of activating protein 1” (priority 1997, published 2003).
# Strand notation (5' to 3'): a small letter for the sugar, then the base; units joined by * are phosphorothioate-linked, units joined directly phosphodiester-linked; [ ] holds rarer units or linkages, { } end groups; capitals alone tell only the bases. d = 2'-deoxy (DNA)
# What was measured:
# c-jun mRNA = c-jun mRNA expression in TPA-induced A549 cells, Northern blotting; assay type: cell-based, human; settings: for c-jun mRNA % CONTROL: 400 nM oligonucleotide with LIPOFECTIN, control is TPA induction, at 1 hour, in A549 cells; for inhibition of c-jun mRNA expression: 400 nM oligonucleotide, TPA-induced A549 cells
# Method: In order to evaluate the activity of potential c-fos and c-jun modulating oligonucleotides, A549 cells were grown in T-75 flasks until 80-90% confluent. (Cell line A549 is available from, inter alia, the American Type Culture Collection, Rockville, Md., as ATCC No. CCL-185.) At this time, the cells were washed twice with 10 mL of media (DMEM), followed by the addition of 5 mL of DMEM containing 20 μg/mL of LIPOFECTIN™ (i.e., DOTMA/DOPE (N-[1-(2,3-dioleyloxy)propyl]-N,N,N-[…] chloride/dioleoylphosphatidyl ethanolamine)). […] After 4 hours at 37° C., the medium was replaced with DMEM containing 10% serum. At this point, 1 μM 12-O-tetradecanoylphorbol 13-acetate (TPA) was added to induce expression of c-fos and c-jun. Cells were extracted in guanidinium one hour later, and the c-fos and c-jun mRNA expression was determined by Northern blotting. Probes for human c-jun and c-fos were PCR products prepared using primers based on the published sequences thereof (respectively, Hattori et al., Proc. Natl. Acad. Sci. U.S.A., 1988, 85:9148, and Van Straaten et al., Proc. Natl. Acad. Sci. U.S.A., 1983, 80:3183).
# c-fos mRNA = c-fos mRNA expression in TPA-induced A549 cells, Northern blotting; assay type: cell-based, human; settings: for c-fos mRNA % CONTROL: 400 nM oligonucleotide with LIPOFECTIN, control is TPA induction, at 1 hour, in A549 cells; for inhibition of c-fos mRNA expression: 400 nM oligonucleotide, TPA-induced A549 cells; for c-fos (expression, modified oligonucleotides): Table 10, TPA - no oligo = 100, basal = 3
# Method: In order to evaluate the activity of potential c-fos and c-jun modulating oligonucleotides, A549 cells were grown in T-75 flasks until 80-90% confluent. (Cell line A549 is available from, inter alia, the American Type Culture Collection, Rockville, Md., as ATCC No. CCL-185.) At this time, the cells were washed twice with 10 mL of media (DMEM), followed by the addition of 5 mL of DMEM containing 20 μg/mL of LIPOFECTIN™ (i.e., DOTMA/DOPE (N-[1-(2,3-dioleyloxy)propyl]-N,N,N-[…] chloride/dioleoylphosphatidyl ethanolamine)). The oligonucleotides were added from a 10 μM stock solution to a final concentration of 400 nM, and the two solutions were mixed by swirling the flasks. After 4 hours at 37° C., the medium was replaced with DMEM containing 10% serum. At this point, 1 μM 12-O-tetradecanoylphorbol 13-acetate (TPA) was added to induce expression of c-fos and c-jun. Cells were extracted in guanidinium one hour later, and the c-fos and c-jun mRNA expression was determined by Northern blotting. Probes for human c-jun and c-fos were PCR products prepared using primers based on the published sequences thereof (respectively, Hattori et al., Proc. Natl. Acad. Sci. U.S.A., 1988, 85:9148, and Van Straaten et al., Proc. Natl. Acad. Sci. U.S.A., 1983, 80:3183).
# Finally, it can also be seen from Table 5 that neither active oligonucleotide has any detectable effect on mRNA levels of the other active oligonucleotide's target.
# Once oligonucleotides that modulate c-Fos or c-Jun are identified, derivative or modified oligonucleotides having the same sequence thereas are prepared. In order to evaluate the effect of chemical modifications to oligonucleotides to c-fos and c-jun, the modified oligonucleotides described in Tables 8 and 9 were prepared. The effect of the c-fos-targeted oligonucleotides on c-fos RNA levels were evaluated as described in Examples 2-3. […] Other modified oligonucleotides of the invention are evaluated in like fashion. In order to evaluate the effect of PNA antisense analogs, the PNA analogs of the invention are introduced into appropriate cell lines by microinjection according to the method of Hanvey et al. (Science, 1992, 258:1481). Intracellular delivery of PNA analogs is confirmed by the use of a fluorescently tagged PNA antisense analog conjugate such as, e.g., ISIS 14240.
substance,measurement,setting,value
ACC-AGC-CCG-GGA-GCC-ACA-GG (dA*dC*dC*dA*dG*dC*dC*dC*dG*dG*dG*dA*dG*dC*dC*dA*dC*dA*dG*dG; antisense) [ISIS 10572],c-jun mRNA % CONTROL,c-jun mRNA,39 % CONTROL
"ACC-GTG-GGA-ATG-AAG-TTG-GC (ACCGTGGGAATGAAGTTGGC; antisense; all phosphorothioate, sugars by position and methylation of C not given here) [ISIS 10632]",c-fos mRNA % CONTROL,c-fos mRNA,63 % CONTROL
"AGC-TCC-CTC-CTC-CGG-TTG-CG (AGCTCCCTCCTCCGGTTGCG; antisense; all phosphorothioate, sugars by position and methylation of C not given here) [ISIS 10633]",c-fos mRNA % CONTROL,c-fos mRNA,24 % CONTROL
same,inhibition of c-fos mRNA expression,c-fos mRNA,76%
"A^SA^SG^ST^SC^SC^ST^ST^SG^SA^SG^SG^SC^SC^SC^SA^SC^SA^SG^SC (antisense AAGTCCTTGAGGCCCACAGC; all phosphorothioate, sugars by position and methylation of C not given here) [ISIS 11538]","c-fos (expression, modified oligonucleotides)",c-fos mRNA; A549 cells,15
"A^SA^SG^ST^SC^SC^ST^ST^SG^SA^SG^SG^SC^SC^SChu SA^SC^SA^SG^SC (AAGTCCTTGAGGCCCACAGC; all phosphorothioate, sugars by position and methylation of C not given here; further chemistry not fully specified) [ISIS 11200]",effect on c-fos mRNA levels during TPA induction (in words),c-fos mRNA; A549 cells,some enhancement of c-fos modulation
same,"c-fos (expression, modified oligonucleotides)",c-fos mRNA; A549 cells,5
"CAT-CGT-GGC-GGT-TAG-GCA-AA (CATCGTGGCGGTTAGGCAAA; antisense; all phosphorothioate, sugars by position and methylation of C not given here) [ISIS 10630]",c-fos mRNA % CONTROL,c-fos mRNA,91 % CONTROL
"CCC-CCA-CTT-CCG-CCC-ACT-AT (CCCCCACTTCCGCCCACTAT; antisense; DNA, all phosphorothioate, methylation of C not given here) [ISIS 10644]",c-fos mRNA % CONTROL,c-fos mRNA,104 % CONTROL
CCC-CCG-ACC-GTC-TCT-CTT-CA (dC*dC*dC*dC*dC*dG*dA*dC*dC*dG*dT*dC*dT*dC*dT*dC*dT*dT*dC*dA; antisense) [ISIS 10581],c-jun mRNA % CONTROL,c-jun mRNA,24 % CONTROL
same,inhibition of c-jun mRNA expression,c-jun mRNA,76%
"CCC-CTC-CAG-CAG-CTA-CCC-TT (CCCCTCCAGCAGCTACCCTT; antisense; all phosphorothioate, sugars by position and methylation of C not given here) [ISIS 10640]",c-fos mRNA % CONTROL,c-fos mRNA,87 % CONTROL
"CCC-TCC-CAG-GCT-CAA-GTC-AT (CCCTCCCAGGCTCAAGTCAT; antisense; DNA, all phosphorothioate, methylation of C not given here) [ISIS 10646]",c-fos mRNA % CONTROL,c-fos mRNA,100 % CONTROL
"CCT-CAC-AGG-GCC-AGC-AGC-GT (CCTCACAGGGCCAGCAGCGT; antisense; all phosphorothioate, sugars by position and methylation of C not given here) [ISIS 10637]",c-fos mRNA % CONTROL,c-fos mRNA,35 % CONTROL
"CCT-GCC-TCG-GCC-TCC-CAA-AG (CCTGCCTCGGCCTCCCAAAG; antisense; DNA, all phosphorothioate, methylation of C not given here) [ISIS 10643]",c-fos mRNA % CONTROL,c-fos mRNA,39 % CONTROL
CGC-ACC-TCC-ACT-CCC-GCC-TC (dC*dG*dC*dA*dC*dC*dT*dC*dC*dA*dC*dT*dC*dC*dC*dG*dC*dC*dT*dC; antisense) [ISIS 10571],c-jun mRNA % CONTROL,c-jun mRNA,100 % CONTROL
CGC-CCC-GCC-GCC-GCT-GCT-CA (dC*dG*dC*dC*dC*dC*dG*dC*dC*dG*dC*dC*dG*dC*dT*dG*dC*dT*dC*dA; antisense) [ISIS 10579],c-jun mRNA % CONTROL,c-jun mRNA,41 % CONTROL
"CGC-GCC-CGG-CCT-GAA-AAT-TT (CGCGCCCGGCCTGAAAATTT; antisense; DNA, all phosphorothioate, methylation of C not given here) [ISIS 10642]",c-fos mRNA % CONTROL,c-fos mRNA,87 % CONTROL
"CGG-TCA-CTG-CTC-GTT-CGC-TG (CGGTCACTGCTCGTTCGCTG; antisense; all phosphorothioate, sugars by position and methylation of C not given here) [ISIS 10629]",c-fos mRNA % CONTROL,c-fos mRNA,72 % CONTROL
"GAG-AAC-ATC-ATC-GTG-GCG-GT (GAGAACATCATCGTGGCGGT; antisense; all phosphorothioate, sugars by position and methylation of C not given here) [ISIS 10631]",c-fos mRNA % CONTROL,c-fos mRNA,118 % CONTROL
GCC-ACA-CTC-AGT-GCA-ACT-CT (dG*dC*dC*dA*dC*dA*dC*dT*dC*dA*dG*dT*dG*dC*dA*dA*dC*dT*dC*dT; antisense) [ISIS 10570],c-jun mRNA % CONTROL,c-jun mRNA,62 % CONTROL
GCT-GCG-CCG-CCG-ACG-TGA-CG (dG*dC*dT*dG*dC*dG*dC*dC*dG*dC*dC*dG*dA*dC*dG*dT*dG*dA*dC*dG; antisense) [ISIS 10578],c-jun mRNA % CONTROL,c-jun mRNA,37 % CONTROL
"GGT-GCC-GGC-TGC-CTC-CCC-TT (GGTGCCGGCTGCCTCCCCTT; antisense; all phosphorothioate, sugars by position and methylation of C not given here) [ISIS 10638]",c-fos mRNA % CONTROL,c-fos mRNA,22 % CONTROL
same,inhibition of c-fos mRNA expression,c-fos mRNA,78%
GTG-TCT-CGC-CGG-GCA-TCT-CG (dG*dT*dG*dT*dC*dT*dC*dG*dC*dC*dG*dG*dG*dC*dA*dT*dC*dT*dC*dG; antisense) [ISIS 10580],c-jun mRNA % CONTROL,c-jun mRNA,19 % CONTROL
same,inhibition of c-jun mRNA expression,c-jun mRNA,81%
"TCC-CGT-CCC-CAG-AAG-CAG-TA (TCCCGTCCCCAGAAGCAGTA; antisense; DNA, all phosphorothioate, methylation of C not given here) [ISIS 10641]",c-fos mRNA % CONTROL,c-fos mRNA,68 % CONTROL
TGC-CCC-TCA-GCC-CCC-GAC-GG (dT*dG*dC*dC*dC*dC*dT*dC*dA*dG*dC*dC*dC*dC*dC*dG*dA*dC*dG*dG; antisense) [ISIS 10583],c-jun mRNA % CONTROL,c-jun mRNA,20 % CONTROL
same,inhibition of c-jun mRNA expression,c-jun mRNA,80%
"TGC-TCG-CTG-CAC-ATG-CGG-TT (TGCTCGCTGCACATGCGGTT; antisense; all phosphorothioate, sugars by position and methylation of C not given here) [ISIS 10628]",c-fos mRNA % CONTROL,c-fos mRNA,79 % CONTROL
"TGC-TGC-TGC-CCT-TGC-GGT-GG (TGCTGCTGCCCTTGCGGTGG; antisense; all phosphorothioate, sugars by position and methylation of C not given here) [ISIS 10636]",c-fos mRNA % CONTROL,c-fos mRNA,42 % CONTROL
"TGG-CAC-GGA-GCG-GGC-TGT-CT (TGGCACGGAGCGGGCTGTCT; antisense; all phosphorothioate, sugars by position and methylation of C not given here) [ISIS 10635]",c-fos mRNA % CONTROL,c-fos mRNA,12 % CONTROL
same,inhibition of c-fos mRNA expression,c-fos mRNA,88%
"TGG-TGC-CTG-CGT-GAT-ACT-CG (TGGTGCCTGCGTGATACTCG; antisense; DNA, all phosphorothioate, methylation of C not given here) [ISIS 10645]",c-fos mRNA % CONTROL,c-fos mRNA,56 % CONTROL
"TTG-CAG-GCA-GGT-CGG-TGA-GC (TTGCAGGCAGGTCGGTGAGC; antisense; all phosphorothioate, sugars by position and methylation of C not given here) [ISIS 10634]",c-fos mRNA % CONTROL,c-fos mRNA,42 % CONTROL
